Data from patent US5656629A, “6-substituted pyrazolo (3,4-d)pyrimidin-4-ones and compositions and methods of use thereof” (Sanofi Winthrop, Inc., priority 1995, dated 1997).

What was measured:
[1] = test system: Spontaneously hypertensive rats; assay: reversal of nitroglycerin-induced tolerance in spontaneously hypertensive rats; type: in vivo, Spontaneously hypertensive rats (17-25 weeks of age); conditions: for Percent (%) Reversal of Nitroglycerin-induced Tolerance: iv pretreatment 5-10 min before nitroglycerin challenge
Method: Spontaneously hypertensive rats (17-25 weeks of age) were made nitroglycerin tolerant by repeated administration of high doses of nitroglycerin (100 mg/kg, s.c., 3 times/day for 3 consecutive days). To confirm tolerance challenge doses of nitroglycerin were administered intravenously at doses ranging from 1-300 μg/kg and the maximum change in mean arterial pressure (MAP) for each dose was recorded. Groups of tolerant rats were pretreated with the compounds of the invention (tolerant pretreated group) or with vehicle (0.05N NaOH) (tolerant vehicle pretreated group) intravenously 5-10 minutes prior to administration of challenge doses of nitroglycerin. The administration of challenge doses of nitroglycerin to non-tolerant rats (the non-tolerant group) caused a dose-dependent decrease in MAP of between 10 to 40 mm Hg. […] The area under the dose-MAP curve was calculated for the non-tolerant group and for the tolerant vehicle pretreated group and the tolerant pretreated group. The percent reversal of nitrate-inducedtolerance was calculated as follows:
Percent Reversal=(AUCtol-pretreated -AUCtol-veh)/(AUCnontol
wherein: AUCnontol =the area under the dose-MAP curve for the non-tolerant group.
AUCtol-veh =the area under the dose-MAP curve for the tolerant vehicle pretreated group.
AUCtol-pretreated =the area under the dose-MAP curve for the tolerant pretreated group.
The following table summarizes the results obtained from the testing of representative compounds of the invention.

cGMP-PDE V = molecular target: T1, cGMP-PDE V (Homo sapiens, UniProt O76074); assay: cGMP-PDE V inhibition (isozyme isolated from cardiovascular tissue); type: biochemical, various animal species and man
T1 construct: isolated from cardiovascular tissues (heart and aorta); from tissue; host or cells: cardiovascular tissues (heart and aorta)
Text: The cGMP-PDE and other PDE isozymes were isolated from cardiovascular tissues (heart and aorta) of various animal species and man by anion-exchange and affinity chromatography as described by Silver et al., Sec. Messeng. Phos. […] Cyclic Nucleotide Res. 10:69-92.

[2] = test system: Spontaneously hypertensive rats (SHR); assay: antihypertensive activity in conscious spontaneously hypertensive rats (mean arterial pressure); type: in vivo; conditions: Rattus norvegicus, SHR iv; for ED25: 5 min, 5 min after dose, cumulative dosing, read-out: ED25, change in mean arterial pressure
Method: After a 2 day recovery from surgery, three baseline blood pressure measurements were made at 5 min intervals in conscious SHR. Compounds to be tested or vehicle were then administered intravenously in a dose-dependent manner (0.3-10 mg base/kg) while arterial pressure was recorded continuously on a polygraph. The mean arterial pressure response was measured 5 minutes after the administration of each dose of the test compound and the next dose given in a cumulative dose fashion. The response to each dose of the test compound was calculated as the difference from the mean of the three baseline measurements.

[3] = test system: Spontaneously hypertensive rats (SHR); assay: as above; type: in vivo; conditions: Rattus norvegicus

For `O=[N+]([O-])OCC(CO[N+](=O)[O-])O[N+](=O)[O-]` [nitroglycerin, reference compound], the “hypotensive response to nitroglycerin challenge” value ([1]; tolerant vehicle pretreated group, 1-300 μg/kg iv) was “significant reduction of the hypotensive response”.

In the case of `CCc1[nH]n(C2CCCC2)c2nc(Cc3ccc(O)cc3)nc(=O)c1-2` [Example 7, 1-cyclopentyl-3-ethyl-6-(4-hydroxyphenylmethyl)pyrazolo[3,4-d]pyrimidin-4-one], the “Percent (%) Reversal of Nitroglycerin-induced Tolerance” value (shortened to “Percent (%) Reversal”) ([1]; Dose 0.3 mg/kg) is reported as 46%, the “Percent (%) Reversal” value ([1]; Dose 1.0 mg/kg) is reported as 45% and the IC50 (cGMP-PDE V) is reported as 19 nM. For the same compound, the ED25 [2] was 4.6 mg/kg.

For `CCc1[nH]n(C2CCCC2)c2nc(Cc3ccc(N)cc3)nc(=O)c1-2` [Example 26, 1-cyclopentyl-3-ethyl-6-(4-aminophenylmethyl)pyrazolo[3,4-d]pyrimidin-4-one], the change in vivo at 10 mg/kg ([3]; SHR, 10 mg/kg, po) was -56%, the IC50 (cGMP-PDE V) was 8.7 nM and the ED25 [2] was 4.2 mg/kg. For the same compound, the change in vivo at 10 mg/kg [2] was -46%.

For `CCc1nn(C2CCCC2)c2nc(Cc3ccccc3)[nH]c(=O)c12` [1(b), 1-cyclopentyl-3-ethyl-6-(phenylmethyl)-pyrazolo[3,4-d]pyrimdin-4-one], the change in vivo at 30 mg/kg ([3]; SHR iv, 30 mg/kg) was -29%, the IC50 (cGMP-PDE V) was 10 nM and the change in vivo at 1 mg/kg ([2]; 1 mg/kg) was -15%.

In the case of `CCc1[nH]n(C2CCCC2)c2nc(Cc3ccc(OC)cc3)nc(=O)c1-2` [Example 6, 1-cyclopentyl-3-ethyl-6-(4-methoxyphenylmethyl)pyrazolo[3,4-d]pyrimidin-4-one], the “Percent (%) Reversal” value ([1]; Dose 1.0 mg/kg) is reported as 69%, the “Percent (%) Reversal” value ([1]; Dose 3.0 mg/kg) is reported as 140% and the IC50 (cGMP-PDE V) is reported as 23 nM. For the same compound, the ED25 [2] was 8.4 mg/kg and the change in vivo at 10 mg/kg [2] was -30%.
